The record followed here is patent US9096548B2, “Pyrazine amide compounds” (Boehringer Ingelheim International GmbH, priority 2013, dated 2015).

Structures can show the parent of a compound that is named as a salt. Some results are limits rather than exact numbers.

One experiment addresses T1, ENaC (Epithelial Sodium Channel) (Mus musculus, UniProt Q61180+Q9WU38+Q9WU39).
T1 construct: Mouse kidney M−1 cells were cultivated in DMEM; endogenous in cells; host or cells: Mouse kidney M-1 cells, cultivated with dexamethasone on transwell filters
T1 sequence (Q61180 1-699): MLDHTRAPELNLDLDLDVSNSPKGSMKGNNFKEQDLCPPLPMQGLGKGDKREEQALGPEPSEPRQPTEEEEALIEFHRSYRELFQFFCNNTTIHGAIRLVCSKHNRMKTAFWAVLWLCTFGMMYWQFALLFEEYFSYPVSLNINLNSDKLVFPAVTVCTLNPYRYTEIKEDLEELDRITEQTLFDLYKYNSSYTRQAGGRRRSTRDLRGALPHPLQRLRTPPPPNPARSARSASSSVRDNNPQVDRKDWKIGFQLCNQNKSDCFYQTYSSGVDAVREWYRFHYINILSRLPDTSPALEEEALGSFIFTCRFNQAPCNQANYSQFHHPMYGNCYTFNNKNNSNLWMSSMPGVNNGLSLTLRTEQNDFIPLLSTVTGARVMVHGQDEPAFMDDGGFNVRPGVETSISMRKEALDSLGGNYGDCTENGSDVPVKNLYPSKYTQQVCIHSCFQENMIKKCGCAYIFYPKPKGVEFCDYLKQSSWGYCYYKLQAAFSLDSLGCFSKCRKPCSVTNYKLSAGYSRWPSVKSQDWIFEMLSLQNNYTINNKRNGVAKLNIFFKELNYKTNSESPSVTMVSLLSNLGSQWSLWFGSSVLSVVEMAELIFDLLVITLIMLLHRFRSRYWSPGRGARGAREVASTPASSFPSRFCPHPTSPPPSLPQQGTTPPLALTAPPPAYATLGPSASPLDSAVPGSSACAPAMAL
T1 sequence (Q9WU38 1-638): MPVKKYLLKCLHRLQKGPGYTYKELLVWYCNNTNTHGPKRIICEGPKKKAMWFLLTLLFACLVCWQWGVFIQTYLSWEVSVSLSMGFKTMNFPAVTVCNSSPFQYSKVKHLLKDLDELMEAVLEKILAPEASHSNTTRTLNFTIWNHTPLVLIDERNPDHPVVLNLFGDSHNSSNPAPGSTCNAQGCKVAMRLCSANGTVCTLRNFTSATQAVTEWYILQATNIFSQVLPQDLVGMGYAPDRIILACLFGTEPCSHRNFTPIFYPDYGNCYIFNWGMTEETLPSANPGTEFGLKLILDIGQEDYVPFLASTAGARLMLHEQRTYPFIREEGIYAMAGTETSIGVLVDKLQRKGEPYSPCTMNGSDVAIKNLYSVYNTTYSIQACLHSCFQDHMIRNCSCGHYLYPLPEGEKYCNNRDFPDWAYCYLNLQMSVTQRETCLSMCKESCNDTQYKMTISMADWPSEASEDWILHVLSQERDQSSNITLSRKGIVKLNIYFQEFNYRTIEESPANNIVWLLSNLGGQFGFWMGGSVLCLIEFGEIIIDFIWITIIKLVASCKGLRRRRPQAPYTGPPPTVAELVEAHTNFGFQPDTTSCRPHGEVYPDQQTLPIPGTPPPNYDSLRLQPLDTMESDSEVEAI
T1 sequence (Q9WU39 1-655): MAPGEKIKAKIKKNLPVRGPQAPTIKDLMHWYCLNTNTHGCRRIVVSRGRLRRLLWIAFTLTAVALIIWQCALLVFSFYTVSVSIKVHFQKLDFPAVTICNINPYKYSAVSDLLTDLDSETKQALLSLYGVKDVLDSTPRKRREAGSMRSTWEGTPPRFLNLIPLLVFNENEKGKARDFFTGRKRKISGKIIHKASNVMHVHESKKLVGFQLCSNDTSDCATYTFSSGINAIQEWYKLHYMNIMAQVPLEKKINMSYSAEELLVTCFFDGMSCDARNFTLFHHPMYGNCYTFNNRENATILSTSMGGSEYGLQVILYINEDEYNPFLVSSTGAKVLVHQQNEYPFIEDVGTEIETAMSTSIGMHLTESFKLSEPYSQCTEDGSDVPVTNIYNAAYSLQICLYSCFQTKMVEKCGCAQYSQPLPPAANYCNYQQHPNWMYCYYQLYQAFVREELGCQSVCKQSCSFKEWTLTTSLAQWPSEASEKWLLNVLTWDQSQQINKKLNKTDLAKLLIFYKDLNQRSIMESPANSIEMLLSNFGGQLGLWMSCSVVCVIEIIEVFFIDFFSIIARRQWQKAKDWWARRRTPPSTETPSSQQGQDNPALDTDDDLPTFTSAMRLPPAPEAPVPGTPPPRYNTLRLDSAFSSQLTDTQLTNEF
Put plainly: Ussing Chamber assay (short circuit current, amiloride sensitive I_SC). In kind it is cell-based.
Details: not given
On the procedure: The IC50 values of the example compounds given above were determined in the Ussing Chamber assay.
Ussing Chamber: Mouse kidney M−1 cells were cultivated in DMEM containing 5% FCS and 5 μM dexamethasone for 10 to 12 days on polyester transwell filters. Filters were inserted into a teflon-coated well-plate which fit into the ussing chamber system. Prior to measurement the medium of M−1 cells was replaced with Caco-2 transport buffer (Invitrogen, Germany). During measurements, the Ussing chamber temperature was kept at 37° C. Short circuit currents (I_sc) were measured in the voltage-clamp mode with the software package Lab View for data acquisition and analysis. The transepithelial electrical resistance (TEER) was determined by the application of voltage steps of ±5 mV every 5 sec. Compounds were administered at a final concentration of 3 μM or at increasing concentrations (1-3-10 μM) to the apical solution. At the end of each experiment the amiloride sensitive I_SC was measured by adding 3 μM amiloride to the apical compartment. Results are expressed as inhibition in percent of the amiloride effect or as IC50.
The term IC50 denotes the point on the concentration scale where inhibition reaches its midpoint. With `Nc1nc(N)c(C(=O)NC2CCC[N+](CCCc3ccc(O)cc3)(CCCc3ccc(O)cc3)C2)nc1Cl` (centres unmarked) [Example 6.15, 3-[(3,5-Diamino-6-chloro-pyrazine-2-carbonyl)-amino]-1,1-bis-[3-(4-hydroxy-phenyl)propyl]-piperidinium trifluoroacetate], it took 0.013 µM to reach half-maximal inhibition (IC50).

The same experiment, now with this note: Ussing chamber, mouse kidney M-1 cells, short circuit current, compound added to the apical solution; read-out: IC50.
In the case of `CN(CCS(C)(=O)=O)C(=O)COc1ccc(CCC[N+]2(CCCc3ccc(OCC(=O)N(C)CCS(C)(=O)=O)cc3)CCC[C@H](NC(=O)c3nc(Cl)c(N)nc3N)C2)cc1` [Example 6.48], the IC50 is 0.085 µM.
Consider `N#Cc1ccc(CCC[N+]2(CCCc3ccc(C#N)cc3)CCC[C@H](NC(=O)c3nc(Cl)c(N)nc3N)C2)cc1` [Example 10.8, 1,1-Bis-[3-(4-cyano-phenyl)-propyl]-3-[(3,5-diamino-6-chloro-pyrazine-2-carbonyl)-amino]-piperidinium chloride], for which the IC50 turned out to be 0.034 µM.
For the compound `COc1ccc(CCC[N+]2(Cc3ccccc3)CCCC(NC(=O)c3nc(Cl)c(N)nc3N)C2)cc1` (centres unmarked) [Example 3.7], the IC50 amounted to 0.14 µM.
On the same count and under the same terms, then `COc1ccc(CCC[N+]2(CCCc3ccc(C(=O)NCCCS(=O)(=O)O)cc3)CCCC(NC(=O)c3nc(Cl)c(N)nc3N)C2)cc1` (centres unmarked) [Example 5.4], with 0.26 µM.
With `CN(C)CCNC(=O)COc1ccc(CCC[N+]2(CCCc3ccc(OCC(=O)NCCN(C)C)cc3)CCCC(NC(=O)c3nc(Cl)c(N)nc3N)C2)cc1` (centres unmarked) [Example 6.5], the IC50 was 0.05 µM.
`Nc1nc(N)c(C(=O)N[C@H]2CCC[N+](CCCc3ccc(OCC(=O)NCCO)cc3)(CCCc3ccc(OCC(=O)NCCO)cc3)C2)nc1Cl` [Example 6.38]: the IC50 came to 0.045 µM.
Take `Nc1nc(N)c(C(=O)N[C@H]2CCC[N+](CCCc3ccc(OCC(=O)NCCc4ccccn4)cc3)(CCCc3ccc(OCC(=O)NCCc4ccccn4)cc3)C2)nc1Cl` [Example 6.50]: the IC50 turned out to be 0.006 µM.
Same read-out and setting: then `CO[C@H]1COC[C@@H]1NC(=O)COc1ccc(CCC[N+]2(CCCc3ccc(OCC(=O)N[C@H]4COC[C@@H]4OC)cc3)CCC[C@H](NC(=O)c3nc(Cl)c(N)nc3N)C2)cc1` [Example 6.49], with 0.027 µM; and `CN(C)CCN(C)C(=O)COc1ccc(CCC[N+]2(CCCc3ccc(OCC(=O)N(C)CCN(C)C)cc3)CCCC(NC(=O)c3nc(Cl)c(N)nc3N)C2)cc1` (centres unmarked) [Example 6.9], with 0.065 µM.
On to `Nc1nc(N)c(C(=O)N[C@H]2CCC[N+](CCCc3ccc(OCC(=O)NCCN4CCOCC4)cc3)(CCCc3ccc(OCC(=O)NCCN4CCOCC4)cc3)C2)nc1Cl` [Example 6.63], for which the IC50 was found to be 0.042 µM.
For the compound `Cn1cnc(CNC(=O)COc2ccc(CCC[N+]3(CCCc4ccc(OCC(=O)NCc5cn(C)cn5)cc4)CCC[C@H](NC(=O)c4nc(Cl)c(N)nc4N)C3)cc2)c1` [Example 6.40], the IC50 was 0.021 µM.
Turning to `Nc1nc(N)c(C(=O)N[C@H]2CCC[N+](CCCc3ccc(OCC(=O)NCCc4ccncc4)cc3)(CCCc3ccc(OCC(=O)NCCc4ccncc4)cc3)C2)nc1Cl` [Example 6.52], the IC50 came out at 0.004 µM.
On to `CN(C)C(=O)CNC(=O)COc1ccc(CCC[N+]2(CCCc3ccc(OCC(=O)NCC(=O)N(C)C)cc3)CCC[C@H](NC(=O)c3nc(Cl)c(N)nc3N)C2)cc1` [Example 6.28], for which the IC50 amounted to 0.041 µM.
On the same count and under the same terms, then `CN(C)C(=O)CN(C)C(=O)COc1ccc(CCC[N+]2(CCCc3ccc(OCC(=O)N(C)CC(=O)N(C)C)cc3)CCC[C@H](NC(=O)c3nc(Cl)c(N)nc3N)C2)cc1` [Example 6.32], with 0.232 µM; and `Cn1ccnc1CNC(=O)COc1ccc(CCC[N+]2(CCCc3ccc(OCC(=O)NCc4nccn4C)cc3)CCC[C@H](NC(=O)c3nc(Cl)c(N)nc3N)C2)cc1` [Example 6.33], with 0.021 µM.
For `CS(=O)(=O)CCCNC(=O)COc1ccc(CCC[N+]2(CCCc3ccc(OCC(=O)NCCCS(C)(=O)=O)cc3)CCC[C@H](NC(=O)c3nc(Cl)c(N)nc3N)C2)cc1` [Example 6.43], the IC50 turned out to be 0.064 µM.

The same experiment, now with this note: Ussing chamber, mouse kidney M-1 cells, short circuit current; unit inferred; read-out: IC50.
As for `COC(=O)COc1ccc(CCC[N+]2(CCCc3ccc(OCC(=O)NCCOCCOCCO)cc3)CCCC(NC(=O)c3nc(Cl)c(N)nc3N)C2)cc1` (centres unmarked) [Example 8.2, 3-[(3,5-Diamino-6-chloro-pyrazine-2-carbonyl)-amino]-1-{3-[4-({2-[2-(2-hydroxy-ethoxy)ethoxy]-ethylcarbamoyl}-methoxy)-phenyl]-propyl}-1-[3-(4-methoxycarbonylmethoxy-phenyl)-propyl]-piperidinium chloride], the IC50 came out at 0.37 µM.
Consider `Nc1nc(N)c(C(=O)NC2CCC[N+](CCCc3ccc(OCC(=O)NCCOCCOCCO)cc3)(CCCc3ccc(OCC(=O)NCCOCCOCCO)cc3)C2)nc1Cl` (centres unmarked) [Example 6.3, 3-[(3,5-Diamino-6-chloro-pyrazine-2-carbonyl)-amino]-1,1-bis-{3-[4-({2-[2-(2-hydroxyethoxy)-ethoxy]-ethylcarbamoyl}-methoxy)-phenyl]-propyl}-piperidinium trifluoroacetate], for which the IC50 turned out to be 0.103 µM.
The same measure, in the same setting: the value for `COC(=O)C[C@H](C[N+](C)(CCCc1ccc(OC)cc1)CCCc1ccc(OC)cc1)NC(=O)c1nc(Cl)c(N)nc1N` [Example 7.1, {(R)-2-[(3,5-Diamino-6-chloro-pyrazine-2-carbonyl)-amino]-3-methoxycarbonyl-propyl}-bis-[3-(4-methoxy-phenyl)-propyl]-methyl-ammonium chloride] was 1.3 µM; that for `CCOC(=O)C[N+]1(CCCc2ccc(OC)cc2)CCCC(NC(=O)c2nc(Cl)c(N)nc2N)C1` (centres unmarked) [Example 12, 3-[(3,5-Diamino-6-chloro-pyrazine-2-carbonyl)-amino]-1-ethoxycarbonylmethyl-1-[3-(4-methoxy-phenyl)-propyl]-piperidinium chloride] was 0.15 µM.
With `Nc1nc(N)c(C(=O)NC2CCC[N+](CCCc3cccc(O)c3)(CCCc3cccc(O)c3)C2)nc1Cl` (centres unmarked) [Example 10.9, 3-[(3,5-Diamino-6-chloro-pyrazine-2-carbonyl)-amino]-1,1-bis-[3-(3-hydroxy-phenyl)propyl]-piperidinium chloride], the 50% inhibitory concentration (IC50) was 0.013 µM.

The same experiment, now with this note: Ussing chamber, mouse kidney M-1 cells, short circuit current; value printed in the example text with μM; read-out: IC50.
As to `Nc1nc(N)c(C(=O)NC2CCC[N+](CCCc3ccc(OCC(=O)O)cc3)(CCCc3ccc(OCC(=O)O)cc3)C2)nc1Cl` (centres unmarked) [Example 6.1, 1,1-Bis-[3-(4-carboxymethoxy-phenyl)-propyl]-3-[(3,5-diamino-6-chloro-pyrazine-2-carbonyl)-amino]-piperidinium chloride], the IC50 was more than 1 µM.
